From patent US6613772B1, “Substituted 2-aryl-4-amino-chinazolines, method for the production and use thereof as medicaments” (Aventis Pharma Deutschland GmbH, priority 1997, dated 2003)

SMILES | melting point [°C]
COc1cc2c(NCCN(C(C)C)C(C)C)nc(-c3cc(C(F)(F)F)cc(C(F)(F)F)c3)nc2c(OC)c1OC [Example 63, 2-(3,5-Bistrifluoromethylphenyl)-4-(2-diisopropylaminoethylamino)-6,7,8-trimethoxyquinazoline] | 128
COc1cc2nc(-c3ccc(Cl)cc3)nc(NC3CC(C)(C)NC(C)(C)C3)c2cc1OC [Example 26, 2-(4-Chlorophenyl)-4-((2,2,6,6-tetramethylpiperidin-4-yl)amino)-6,7-dimethoxyquinazoline] | 231
COc1cc2c(NCCO)nc(-c3ccc(Cl)cc3)nc2c(OC)c1OC.Cl | 202
COCCCNc1nc(-c2ccc(Cl)cc2)nc2cc(OC)c(OC)cc12 [Example 86, 2-(4-Chlorophenyl)-4-(3-methoxypropylamino)-6,7-dimethoxyquinazoline] | 240
CCCN(CCC)c1nc(-c2ccc(Cl)cc2)nc2c(OC)c(OC)c(OC)cc12 [Example 80, 2-(4-Chlorophenyl)-4-dipropylamino-6,7,8-trimethoxyquinazoline] | 109
COC(=O)CNc1nc(-c2ccc(Cl)cc2)nc2cc(OC)c(OC)cc12 [Example 47, 2-(4-Chlorophenyl)-4-((methoxycarbonylmethyl)amino)-6,7-dimethoxyquinazoline] | 196
COc1cc2nc(-c3ccc(Cl)cc3)nc(N3CCOCC3)c2cc1OC [Example 48, 2-(4-Chlorophenyl)-4-morpholino-6,7-dimethoxyquinazoline] | 178
COc1cc2nc(-c3ccc(Cl)cc3)nc(N(C)CCO)c2cc1OC [Example 41, 2-(4-Chlorophenyl)-4-(N-(2-hydroxyethyl)-N-methylamino)-6,7-dimethoxyquinazoline] | 129
COc1cc2nc(-c3ccc(C)cc3)nc(NCc3cccc([N+](=O)[O-])c3)c2cc1OC [Example 72, 2-(4-Methylphenyl)-4-((3-nitrophenylmethyl)amino)-6,7-dimethoxyquinazoline] | 250
COc1ccccc1CCNc1nc(-c2ccc(C)cc2)nc2cc(OC)c(OC)cc12 [Example 73, 2-(4-Methylphenyl)-4-(2-(2-methoxyphenyl)ethylamino)-6,7-dimethoxyquinazoline] | 205
COc1cc2c(N3CCOCC3)nc(-c3ccc(Cl)cc3)nc2c(OC)c1OC [Example 55, 2-(4-Chlorophenyl)-4-morpholino-6,7,8-trimethoxyquinazoline] | 153
COc1cc2nc(-c3ccc(Cl)cc3)nc(NCCN(C(C)C)C(C)C)c2cc1OC.Cl.Cl | 246
COc1cc2c(N3CCS(=O)(=O)CC3)nc(-c3ccc(Cl)cc3)nc2c(OC)c1OC [Example 69, 2-(4-Chlorophenyl)-4-(1,1-dioxothiomorpholino)-6,7,8-trimethoxyquinazoline] | 241
COc1cc2c(NCc3cccnc3)nc(-c3ccc(Cl)cc3)nc2c(OC)c1OC [Example 54, 2-(4-Chlorophenyl)-4-((3-pyridylmethyl)amino)-6,7,8-trimethoxyquinazoline] | 262
COc1cc2nc(-c3ccc(Cl)cc3)nc(NCCCn3ccnc3)c2cc1OC [Example 21, 2-(4-Chlorophenyl)-4-(3-(1-imidazolyl)propylamino)-6,7-dimethoxyquinazoline] | 242
COc1cc2c(N3CCNCC3)nc(-c3ccc(Cl)cc3)nc2c(OC)c1OC [Example 56, 2-(4-Chlorophenyl)-4-piperazino-6,7,8-trimethoxyquinazoline] | 156
COc1cc2nc(-c3ccc(Cl)cc3)nc(N3C[C@@H](C)O[C@@H](C)C3)c2cc1OC [Example 90, 2-(4-Chlorophenyl)-4-(cis-2,6-dimethylmorpholino)-6,7-dimethoxyquinazoline] | 223
COc1cc2nc(-c3ccc(C(F)(F)F)cc3)nc(N3CCN(CCO)CC3)c2cc1OC [Example 43, 2-(4-Trifluoromethylphenyl)-4-(4-(2-hydroxyethyl)piperazino)-6,7-dimethoxyquinazoline] | 176
COc1cc2nc(-c3ccc(C)cc3)nc(N3CC(C)OC(C)C3)c2cc1OC (centres unmarked) [Example 83, 2-(4-Methylphenyl)-4-(2,6-dimethylmorpholino)-6,7-dimethoxyquinazoline] | 177
COc1cc2nc(-c3ccc(C)cc3)nc(N3CCOCC3)c2cc1OC [Example 49, 2-(4-Methylphenyl)-4-morpholino-6,7-dimethoxyquinazoline] | 200
COc1cc2nc(-c3ccc(Cl)cc3)nc(N3CC(C)OC(C)C3)c2cc1OC (centres unmarked) [Example 85, 2-(4-Chlorophenyl)-4-(2,6-dimethylmorpholino)-6,7-dimethoxyquinazoline] | 165
COc1cc2c(N3CC[S+]([O-])CC3)nc(-c3ccc(Cl)cc3)nc2c(OC)c1OC [Example 68, 2-(4-Chlorophenyl)-4-(1-oxothiomorpholino)-6,7,8-trimethoxyquinazoline] | 198

SMILES | melting point [°C]
COc1cc2nc(-c3ccc(Cl)cc3)nc(N3CCN(CC(=O)N4CCOCC4)CC3)c2cc1OC [Example 30, 2-(4-Chlorophenyl)-4-(4-(morpholinocarbonylmethyl)piperazino)-6,7-dimethoxyquinazoline] | 198
COc1cc2c(N3CCN(c4ccccn4)CC3)nc(-c3ccc(Cl)cc3)nc2c(OC)c1OC [Example 78, 2-(4-Chlorophenyl)-4-(4-(2-pyridyl)piperazino)-6,7,8-trimethoxyquinazoline] | 141
COc1cc2nc(-c3ccc(Cl)cc3)nc(N3CCCCCC3)c2cc1OC [Example 89, 2-(4-Chlorophenyl)-4-hexamethyleneimino-6,7-dimethoxyquinazoline] | 189
COc1cc2nc(-c3ccc(C)cc3)nc(NCc3ccncc3)c2cc1OC [Example 51, 2-(4-Methylphenyl)-4-((4-pyridylmethyl)amino)-6,7-dimethoxyquinazoline] | 208
COc1cc2c(N3CCSCC3)nc(-c3ccc(Cl)cc3)nc2c(OC)c1OC [Example 66, 2-(4-Chlorophenyl)-4-thiomorpholino-6,7,8-trimethoxyquinazoline] | 174
COc1cc2nc(-c3ccc(Cl)cc3)nc(N3CCSCC3)c2cc1OC [Example 74, 2-(4-Chlorophenyl)-4-thiomorpholino-6,7-dimethoxyquinazoline] | 214
COc1cc2nc(-c3ccc(C(F)(F)F)cc3)nc(N3CCN(C)CC3)c2cc1OC [Example 45, 2-(4-Trifluoromethylphenyl)-4-(4-methylpiperazino)-6,7-dimethoxyquinazoline] | 139
COc1cc2nc(-c3ccc(C)cc3)nc(N3CC[S+]([O-])CC3)c2cc1OC [Example 77, 2-(4-Methylphenyl)-4-(1-oxothiomorpholino)-6,7-dimethoxyquinazoline] | 216
COc1cc2nc(-c3ccc(Cl)cc3)nc(NCCc3ccc(Oc4ccccc4)cc3)c2cc1OC [Example 46, 2-(4-Chlorophenyl)-4-(2-(4-phenoxyphenyl)ethylamino)-6,7-dimethoxyquinazoline] | 216
COc1ccccc1N1CCN(c2nc(-c3ccc(Cl)cc3)nc3c(OC)c(OC)c(OC)cc23)CC1 [Example 10, 2-(4-Chlorophenyl)-4-(4-(2-methoxyphenyl)piperazino)-6,7,8-trimethoxyquinazoline] | 157
COCCCNc1nc(-c2ccc(C)cc2)nc2cc(OC)c(OC)cc12 [Example 84, 2-(4-Methylphenyl)-4-(3-methoxypropylamino)-6,7-dimethoxyquinazoline] | 162
COc1cc2c(N3CCOCC3)nc(-c3cc(C(F)(F)F)cc(C(F)(F)F)c3)nc2c(OC)c1OC [Example 64, 2-(3,5-Bistrifluoromethylphenyl)-4-morpholino-6,7,8-trimethoxyquinazoline] | 170
COc1cc2c(N3CCN(C)CC3)nc(-c3cc(C(F)(F)F)cc(C(F)(F)F)c3)nc2c(OC)c1OC [Example 62, 2-(3,5-Bistrifluoromethylphenyl)-4-(4-methylpiperazino)-6,7,8-trimethoxyquinazoline] | 176
COc1cc2nc(-c3ccc(C)cc3)nc(NCCc3ccccn3)c2cc1OC [Example 53, 2-(4-Methylphenyl)-4-((2-(2-pyridyl)ethyl)amino)-6,7-dimethoxyquinazoline] | 204
COc1cc2nc(-c3ccc(C)cc3)nc(N(C)Cc3cccnc3)c2cc1OC [Example 97, 2-(4-Methylphenyl)-4-(N-methyl-N-(3-pyridylmethyl)amino)-6,7-dimethoxyquinazoline] | 165
COc1cc2nc(-c3ccc(C)cc3)nc(N3CCSCC3)c2cc1OC [Example 75, 2-(4-Methylphenyl)-4-thiomorpholino-6,7-dimethoxyquinazoline] | 213
COc1cc2c(NCCO)nc(-c3ccc(Cl)cc3)nc2c(OC)c1OC [Example 57, 2-(4-Chlorophenyl)-4-(2-hydroxyethylamino)-6,7,8-trimethoxyquinazoline] | 202
COc1cc2nc(-c3ccc(Cl)cc3)nc(NC3CCN(Cc4ccccc4)CC3)c2cc1OC [Example 22, 2-(4-Chlorophenyl)-4-((1-benzylpiperidin-4-yl)amino)-6,7-dimethoxyquinazoline] | 252
COc1cc2nc(-c3ccc(C(F)(F)F)cc3)nc(N3CCOCC3)c2cc1OC [Example 50, 2-(4-Trifluoromethylphenyl)-4-morpholino-6,7-dimethoxyquinazoline] | 207
COc1cc2nc(-c3ccc(C)cc3)nc(NCCN(C(C)C)C(C)C)c2cc1OC [Example 40, 2-(4-Methylphenyl)-4-(2-diisopropylaminoethylamino)-6,7-dimethoxyquinazoline] | 81
COc1cc2nc(-c3ccc(Cl)cc3)nc(NCCCN3CCCC3=O)c2cc1OC [Example 27, 2-(4-Chlorophenyl)-4-(3-(2-oxopyrrolidino)propylamino)-6,7-dimethoxyquinazoline] | 210
COc1cccc(CCNc2nc(-c3ccc(C)cc3)nc3cc(OC)c(OC)cc23)c1.Cl | 256
